{"source": "patent US11471442B2", "about": "“Administration of gut-selective JAK3 inhibitor” (THERAVANCE BIOPHARMA R&D IP, LLC, priority 2020, dated 2022)", "key": {"[1]": {"test": "Phase 1 SAD (Part A) plasma and urine pharmacokinetics in healthy subjects", "assay_type": "in vivo, human", "conditions": "for AUC(0-inf) / Cmax / Tmax / half-life: human, plasma; for Tmax: read-out: Tmax, median (min, max); for half-life: read-out: t1/2, mean (SD) (converted)", "procedure": "(§1) The plasma PK parameters of the compound of formula (I) calculated following single (Part A) or multiple (Parts B) oral doses.\nIn each cohort, healthy subjects meeting eligibility criteria were sequentially randomized in a 3:1 ratio to receive either the compound of formula (I) or matching placebo. Study drug was administered orally as a single dose on the morning of Day 1 following an overnight fast of at least 9.5 hours. Subjects were dosed in an upright (i.e., seated or standing) position and remained upright for 5 minutes following dosing prior to performing study procedures which require a posture change. Subjects were to remain fasted, except water, until after the 4-hour post-dose assessments were completed and the 4-hour post dose PK sample was collected. PK sampling for the compound of formula (I) in plasma and urine were taken Day 1 pre-dose and for 72 hours post-dose.\n(§2) For all subjects, blood samples for the determination of plasma concentration of the compound of formula (I) were collected at scheduled time points. Blood samples were analyzed to calculate different plasma PK parameters in both part A and part B.\nUrine samples for the determination of concentration of the compound of formula (I) were collected at various posedose intervals only in part A.\n(§3) For all PK data analyses, the PK analysis set was used. Individual subject and mean plasma drug concentration versus time curves for the compound of formula (I) were presented for each dose group. Summary statistics (mean, standard deviation, coefficient of variation, median, minimum, maximum, geometric mean, geometric coefficient of variation, number of subjects) were calculated for plasma concentrations at each time point for each dose group, and the PK parameters for each dose group. Urine PK parameters were summarized for exploratory purposes."}, "[2]": {"test": "Phase 1 pharmacokinetics across all SAD and MAD cohorts", "assay_type": "in vivo", "conditions": "human, plasma, oral", "procedure": "as §1, §2, §3"}, "Caco-2 permeation assay": {"test": "Caco-2 permeation assay", "assay_type": "in vitro ADME", "conditions": "human, read-out: Kp (permeability)"}, "JAK3": {"target": "T1, JAK3 (Homo sapiens, UniProt P52333)", "T1 sequence (P52333 1-1124)": "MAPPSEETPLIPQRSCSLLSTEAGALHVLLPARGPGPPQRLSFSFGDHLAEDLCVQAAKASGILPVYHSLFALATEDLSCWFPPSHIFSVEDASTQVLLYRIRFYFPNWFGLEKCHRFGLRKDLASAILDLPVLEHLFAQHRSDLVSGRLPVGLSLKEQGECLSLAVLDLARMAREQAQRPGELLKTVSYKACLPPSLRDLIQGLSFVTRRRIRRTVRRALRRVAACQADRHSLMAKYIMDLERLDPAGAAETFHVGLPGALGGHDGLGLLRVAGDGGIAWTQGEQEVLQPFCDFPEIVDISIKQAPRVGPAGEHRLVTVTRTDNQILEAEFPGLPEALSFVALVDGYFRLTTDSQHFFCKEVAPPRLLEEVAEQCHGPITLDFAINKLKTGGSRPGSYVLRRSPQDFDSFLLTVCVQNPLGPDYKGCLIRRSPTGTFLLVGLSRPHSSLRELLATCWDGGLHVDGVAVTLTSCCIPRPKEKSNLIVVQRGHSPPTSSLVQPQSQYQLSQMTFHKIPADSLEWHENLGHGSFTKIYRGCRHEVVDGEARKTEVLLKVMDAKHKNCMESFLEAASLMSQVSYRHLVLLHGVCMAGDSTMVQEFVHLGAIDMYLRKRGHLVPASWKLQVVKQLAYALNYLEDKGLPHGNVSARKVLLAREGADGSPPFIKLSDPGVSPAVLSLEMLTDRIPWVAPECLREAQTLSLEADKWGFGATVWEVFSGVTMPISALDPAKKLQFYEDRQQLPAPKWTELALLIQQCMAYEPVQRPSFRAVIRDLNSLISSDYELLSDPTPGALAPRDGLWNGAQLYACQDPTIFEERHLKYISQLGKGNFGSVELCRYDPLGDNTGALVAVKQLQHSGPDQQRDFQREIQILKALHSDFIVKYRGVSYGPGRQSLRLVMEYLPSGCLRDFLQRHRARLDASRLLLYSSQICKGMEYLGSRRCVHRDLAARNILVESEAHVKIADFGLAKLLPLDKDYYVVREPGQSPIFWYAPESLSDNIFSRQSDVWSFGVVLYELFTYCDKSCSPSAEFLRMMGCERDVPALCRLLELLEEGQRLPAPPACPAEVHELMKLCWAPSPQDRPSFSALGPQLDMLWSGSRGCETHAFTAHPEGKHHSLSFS", "test": "Protein-adjusted JAK3 IC50 (reference value, data on file)", "assay_type": "cell-based", "from_the_text": "In FIG. 11B, gray box indicates day 1 of MAD portion. Symbols and error bars represent the arithmetic mean plus SD, and reference IC50 values shown are from data on file. BID, twice daily; HuPBMC, human peripheral blood mononuclear cell; IC50, concentration producing 50% of maximal inhibition."}, "[3]": {"conditions": "single oral dose 1000 mg, n = 6"}, "[4]": {"conditions": "single oral dose 2000 mg, n = 6"}}, "note": "Where two headings read alike, the source gives them in different places.", "data": [{"smiles": "CN(C)C/C=C/C(=O)N1CC(COc2cc(-c3ccc(O)cc3)cc3[nH]ncc23)C1", "note": "[compound of formula (I)]", "values": [{"measurement": "dose proportionality of exposure (AUC and Cmax)", "setting": "[1]; across the studied single-dose range", "result": "slightly less than dose proportional"}, {"measurement": "Urinary excretion, average", "setting": "[1]; all single-dose levels", "result": "< 0.1", "unit": "%"}, {"measurement": "AUC(0-inf)", "setting": "[1]; both sexes, oral, part A (SAD), 100 to 2000 mg, read-out: AUC0-inf in the plasma of the subjects (range)", "result": "2.7 to 172", "unit": "ng·h/mL"}, {"measurement": "AUC(0-inf)", "setting": "[1]; both sexes, oral, part A (SAD), 100 to 2000 mg, read-out: average AUC0-inf", "result": "8.38 to 96", "unit": "ng·h/mL"}, {"measurement": "Cmax", "setting": "[1]; both sexes, oral, single dose of 2000 mg, read-out: average Cmax", "result": 10, "unit": "ng/mL"}, {"measurement": "AUC(0-inf)", "setting": "[1]; po, 100 mg, single oral dose 100 mg, n = 6, read-out: AUCinf, mean (SD)", "result": 8.4, "unit": "ng·h/mL"}, {"measurement": "AUC(0-inf)", "setting": "[1]; po, 300 mg, single oral dose 300 mg, n = 6, read-out: AUCinf, mean (SD)", "result": 24.6, "unit": "ng·h/mL"}, {"measurement": "AUC(0-inf)", "setting": "[1]; po, 1000 mg, single oral dose 1000 mg, one subject excluded, read-out: AUCinf, mean (SD)", "result": 47, "unit": "ng·h/mL"}, {"measurement": "AUC(0-inf)", "setting": "[1]; po, 2000 mg, single oral dose 2000 mg, n = 6, read-out: AUCinf, mean (SD)", "result": 96, "unit": "ng·h/mL"}, {"measurement": "Cmax", "setting": "[1]; single oral dose 100 mg, n = 6, read-out: Cmax, mean (SD)", "result": 1.3, "unit": "ng/mL"}, {"measurement": "Tmax", "setting": "[1]; single oral dose 100 mg, n = 6", "result": 1, "unit": "h"}, {"measurement": "half-life", "setting": "[1]; single oral dose 100 mg, n = 6", "result": 17.5, "unit": "h"}, {"measurement": "Cmax", "setting": "[1]; single oral dose 300 mg, n = 6, read-out: Cmax, mean (SD)", "result": 3.4, "unit": "ng/mL"}, {"measurement": "Tmax", "setting": "[1]; single oral dose 300 mg, n = 6", "result": 1, "unit": "h"}, {"measurement": "half-life", "setting": "[1]; single oral dose 300 mg, n = 6", "result": 14.5, "unit": "h"}, {"measurement": "Cmax", "setting": "[1]; single oral dose 1000 mg, n = 6, read-out: Cmax, mean (SD)", "result": 4.8, "unit": "ng/mL"}, {"measurement": "Tmax", "setting": "[1]; [3]", "result": 1, "unit": "h"}, {"measurement": "half-life", "setting": "[1]; single oral dose 1000 mg, one subject excluded", "result": 16.6, "unit": "h"}, {"measurement": "Cmax", "setting": "[1]; single oral dose 2000 mg, n = 6, read-out: Cmax, mean (SD)", "result": 10.1, "unit": "ng/mL"}, {"measurement": "Tmax", "setting": "[1]; [4]", "result": 2, "unit": "h"}, {"measurement": "half-life", "setting": "[1]; [4]", "result": 16.6, "unit": "h"}, {"measurement": "Plasma concentrations", "setting": "[1]; single oral doses up to 2000 mg", "result": "< 35", "unit": "ng/mL"}, {"measurement": "fe0-72 (percentage of dose excreted in urine over 0 to 72 hours), mean (SD)", "setting": "[1]; single oral dose 100 mg, n = 6", "result": "0.10 (0.051) %"}, {"measurement": "fe0-72 (percentage of dose excreted in urine over 0 to 72 hours), mean (SD)", "setting": "[1]; single oral dose 300 mg, n = 6", "result": "0.082 (0.025) %"}, {"measurement": "fe0-72 (percentage of dose excreted in urine over 0 to 72 hours), mean (SD)", "setting": "[1]; [3]", "result": "0.056 (0.025) %"}, {"measurement": "fe0-72 (percentage of dose excreted in urine over 0 to 72 hours), mean (SD)", "setting": "[1]; [4]", "result": "0.063 (0.028) %"}, {"measurement": "half-life", "setting": "[2]; across all doses in the SAD and MAD cohorts, read-out: mean terminal elimination half-life", "result": "15 to 20", "unit": "h"}, {"measurement": "Cmax", "setting": "[2]; across all doses, read-out: highest observed Cmax", "result": 34.3, "unit": "ng/mL"}, {"measurement": "Papp", "setting": "Caco-2 permeation assay", "result": "< 5", "unit": "×10⁻⁶ cm/s"}, {"measurement": "IC50", "setting": "JAK3", "result": 369, "unit": "nM"}]}]}
